Experimental data: patent EP0998939A1, “Chalcone plant extracts for use in therapy” (THE SCHOOL OF PHARMACY, UNIVERSITY OF LONDON, priority 1998, dated 2000)

Columns and labels:
[1] = test system: platelets; conditions: cited from earlier work
[2] = test system: Female CD1 mice; assay: Topical chemical erythema: inhibition of TPA induced erythema on the mouse ear; assay type: in vivo; conditions: applied to the right ear in 5µl, 20 minutes prior to TPA (0.1µg/5µl)
Description: Ref. Williamson E.M. and Evans F. (1981), Inhibition of erythema induced by proinflammatory esters of 12-deoxyphorbol. Acta Pharmacol. Toxicol.,48, 47-52
Female CD1 mice, weighing approximately 20g were used. • 2. Test plant extracts as produced in Example 1 were applied externally to the right ear of each mouse, at predetermined concentrations in 5µl quantities, 20 minutes prior to the application of the irritant compound 12-O-tetradecanoylphorbal-13-acetate (TPA)(0.1µg/5µl). • 3. A […] response was indicated by redness and inflammation of the ear. • 4. Observations were recorded at 2,3,4,6,7, and 24 hours after the application of TPA. Maximum inflammation caused by TPA alone occurs at 6 hours after the application of TPA.
Erythema of the mouse ear is the simplest experiment to perform as mice have translucent ears in which reddening is easily visible. Quantification is subjective, however the erythema can be described as pronounced, slight or absent. • Isoliquiritigenin ED50 (dose required to inhibit erythema in at least 50% of the animals) 20-50,µg • Licochalcone B ED50 5-10µg • Echinatin ED50 5-10µg

[3] = test system: Blood platelets; assay: Inhibition of blood platelet aggregation (TPA or ADP induced) in platelet rich plasma; assay type: cell-based, human; conditions: for Percentage Inhibition of ADP Induced Aggregation: ADP 6.4 µg; for Percentage Inhibition of TPA Induced Aggregation: TPA 0.5µg
Description: Blood platelets release inflammatory mediators in response to an external stimulus, which affect the proliferation of the cells, which is an important part of the disease psoriasis. • 1. Male human blood was collected via venipucture of the forearm directly in to anticoagulant buffer, from healthy donors who had denied any medication for two weeks, and centrifuged at 1000rpm for 20 minutes at room temperature. • 2. The supernatant was employed as platelet rich plasma (PRP). Platelet poor plasma (PPP) was obtained by centrifuging 1ml of PRP at 11,000 rpm for 10 minutes. • 3. Inhibition of platelet aggregation was tested by adding 2.5µl of a known concentration (containing 10µg or 50µg) of the test compound to a 500µl sample ofPRP for one minute. An aggregation agent was then added as a solution to the sample in a 2.5µl quantity (containing TPA 0.5,µg or ADP 6.4 µg). Aggregation was measured using a dual channel aggregometer . • 4. Aggregation was taken as the % change in light transmission compared to the maximum change produced by TPA or ADP plus the control solution. PRP was used as a standard for zero light transmission and PP for 100% light transmission.

[4] = test system: male Wistar rats; assay: UV-B induced erythema (dermatitis) in rat, epidermal thickness and number of epidermal cell layers; assay type: in vivo; conditions: five days; for No. of cells (epidermal proliferation as compared to the control, no treatment) / Thickness (epidermal thickening as compared to the control, no treatment): control = 100
Description: Rat UV-B induced dermatitis is characterised by a brownish red lesion with scab formation. Histologically, microvascular dilation, intraepidermal accumulation ofleukocytes and hyperproliferation of epidermal cells are all very similar to the symptoms of psoriasis in man (Nakaguma,H., Int. J.ofExp.Path, 76:65-73, 1995) • 1. Hair on the dorsal skin of male Wistar rats (180g) was clipped and shaved, whilst the rats were under anaesthesia, 24 hours prior to the experiment. • 2. The rats were covered by a black plastic sheeting, with two rectangular holes (about 1cm^2) cut out, thus allowing two exposure sites on the dorsal skin whilst protecting the rest of the animal. • 3. The rats were then exposed to UV-B light (302nm) at a distance of 10cm for six minutes and thirty seconds. The total W-B exposure was 2.4J/cm^2 as measured using a UV-X radiometer. • 4. The test compound was then placed onto one of the exposed areas and an unexposed area at a concentration of 100µg/5µl, in a suitable vehicle solution. • 5. Application of the test compound was repeated for five days. • 6. Histological post-mortem sections were taken on the fifth day, and stained using haematoxylin and eosin. The number ofepidermal cell layers and the epidermal thickness was counted and measured at random. Five animals were used per test group.

[5] = test system: swiss 3T3 mouse fibroblast cells; assay: Cell culture 3[H] thymidine assay, Example 6.1 cytotoxicity testing (normal cell growth); assay type: cell-based; conditions: cytotoxicity, no TPA
Description: (§1) Cells used were swiss 3T3 mouse fibroblast cells • 1. 6 x 24 well plates were required for each experiment. • 2. Cells were removed from the standard tissue culture flask using a 1% solution of EDTA and resuspended in 10 ml of media and pipetted off into a falcon tube. • 3. The cells were then spun for 5 minutes at about 2,000rpm. • 4. The existing media was removed, and the cells again resuspended in 10ml of 10% foetal calf serum (FCS) and vortexed. • 5. The 10ml of suspension was then added to 140ml of media and mixed in a sterile jar. 1ml of the media cell suspension was then placed into each well and the plates incubated until confluent, three days .
(§2) • 1. [PCl]Cells were dosed with the test compounds (as specified below) 2 days prior to the addition of 3 [H]thymidine. The cells could only be dosed with a 0.5% solution, 5µl test solution in 1ml cellsuspension i.e. 5µl in 1ml, (TPA - 0.5µM). • 2. 0.5µl of 3[H] thymidine was added per well, therefore 72µl was added to 144µl of media (1%F.C.S.) to dose the corresponding six plates. • 3. 100µl of the media was taken to measure the measure the radioactive dose […], and added to 4ml of scintillation fluid. • 4. The radioactive media was then transferred to sterile specimen tubes and dosed with the test compounds before adding to the cells. • 5. After four hours ofbeing pulsed with radiolabelled thymidine (0.5µCi/ml) the media was removed and washed down the sink. • 6. The cells were washed twice with ice cold phosphate buffered saline (PBS), 0.5ml per well, and incubated for 30 min using ice cold 5% trichloroacetic acid (TCA) ( 1ml) per well at room temperature. • 8. The TCA was then removed and another 1ml of 5% TCA was added for 5 minutes. After the TCA was removed and 0.3NaOH and 0.1% sodium dodecyl sulphate added to each well for 30 minutes (1ml/well). • 9. The contents of each well was added to scintillation vials containing 4ml of scintillation fluid and each sample counted for four minutes using a scintillation counter. Three different assays were carried out using this protocol; • 6.1. Cytotoxicity testing of the compounds. After 48 hours of incubation and the cells were confluent a predetermined quantity of the test compounds was added to the cells. • 6.2. Inhibition of TPA induced proliferation. After 48 hours a preditermined quantity concentration of the test compounds was added to the cells as well as 0.5um of TPA. […] Inhibition of TPA induced proliferation. After 48 hours a predetermined quantity concentration of the test compounds was added to the cells for 24 hours, at 72 hours the media was changed again to contain both test compound and 0.5µM of the TPA. The objective of this experiment was to observe whether the prior incubation with the test compound had any effect on the TPA induced proliferation of the cells.

[6] = test system: swiss 3T3 mouse fibroblast cells; assay: Cell culture 3[H] thymidine assay, Example 6.2 inhibition of TPA induced proliferation (compound added together with TPA); assay type: cell-based; conditions: with 0.5µM TPA
Description: as §1, §2

[7] = test system: swiss 3T3 mouse fibroblast cells; assay: Cell culture 3[H] thymidine assay, Example 6.3 inhibition of TPA induced proliferation (24 hours prior incubation with compound); assay type: cell-based; conditions: compound 24 hours before compound + 0.5µM TPA
Description: as §1, §2

[8] = test system: human polymorphonuclear neutrophils; conditions: properties associated with inflammatory processes; cited from earlier work
[9] = test system: platelet aggregation; conditions: in rats, compared with aspirin; cited from earlier work
[10] = Conc. 10µg test compound in 500µl PRP
[11] = Conc. 50µg test compound in 500µl PRP
[12] = Active Compound Only, unexposed area, 100µg/5µl
[13] = UV Exposure + Active Compound versus UV Exposure, 100µg/5µl
[14] = UV Exposure + Active Compound, 100µg/5µl topical

CCCCCCCCCCCCCC(=O)O[C@@H]1[C@@H](C)[C@@]2(O)[C@@H](C=C(CO)C[C@]3(O)C(=O)C(C)=C[C@@H]23)[C@@H]2C(C)(C)[C@]12OC(C)=O [TPA, 12-O-tetradecanoylphorbol-13-acetate]
concentration causing irreversible platelet aggregation [1]: 0.2 µM

O=C(/C=C/c1ccc(O)cc1)c1ccc(O)cc1O [Isoliquiritigenin, isoliquiritigenin]
ED50 (dose required to inhibit erythema in at least 50% of the animals) [2]: 20 to 50 µg | Percentage Inhibition of ADP Induced Aggregation [3, 10]: 20% | Percentage Inhibition of TPA Induced Aggregation [3, 10]: 3% | Percentage Inhibition of ADP Induced Aggregation [3, 11]: 26% | Percentage Inhibition of TPA Induced Aggregation [3, 11]: 13% | inhibiting blood platelet aggregation, result in words ([3]; comparison among the three chalcones, especially ADP induced aggregation): most active | No. of cells (epidermal proliferation as compared to the control, no treatment) [4, 12]: 103% | Thickness (epidermal thickening as compared to the control, no treatment) [4, 12]: 102% | Percentage inhibition of epidermal proliferation (No. of cells, in brackets) [4, 13]: (77) % | Percentage inhibition of epidermal thickening (in brackets) [4, 13]: (71) % | No. of cells (epidermal proliferation as compared to the control, no treatment) [4, 14]: 119% | Thickness (epidermal thickening as compared to the control, no treatment) [4, 14]: 116% | Percentage Inhibition of 3T3 Swiss Fibroblast Growth, Example 6.1 ([5]; Concentration 0.01 µg): 20% | Percentage Inhibition of 3T3 Swiss Fibroblast Growth, Example 6.1 ([5]; Concentration 0.1 µg): 18% | Percentage Inhibition of 3T3 Swiss Fibroblast Growth, Example 6.1 ([5]; Concentration 1 µg): 32% | Percentage Inhibition of 3T3 Swiss Fibroblast Growth, Example 6.1 ([5]; Concentration 10 µg): 32% | Percentage Inhibition of 3T3 Swiss Fibroblast Growth, Example 6.1 ([5]; Concentration 20 µg): 54% | Percentage Inhibition of 3T3 Swiss Fibroblast Growth, Example 6.2 ([6]; Concentration 0.01 µg): 6% | Percentage Inhibition of 3T3 Swiss Fibroblast Growth, Example 6.2 ([6]; Concentration 0.1 µg): +4% | Percentage Inhibition of 3T3 Swiss Fibroblast Growth, Example 6.2 ([6]; Concentration 1 µg): 4% | Percentage Inhibition of 3T3 Swiss Fibroblast Growth, Example 6.2 ([6]; Concentration 10 µg): 28% | Percentage Inhibition of 3T3 Swiss Fibroblast Growth, Example 6.2 ([6]; Concentration 20 µg): 29% | Percentage Inhibition of 3T3 Swiss Fibroblast Growth, Example 6.3 ([7]; Concentration 0.01 µg): 31% | Percentage Inhibition of 3T3 Swiss Fibroblast Growth, Example 6.3 ([7]; Concentration 0.1 µg): 39% | Percentage Inhibition of 3T3 Swiss Fibroblast Growth, Example 6.3 ([7]; Concentration 1 µg): 50% | Percentage Inhibition of 3T3 Swiss Fibroblast Growth, Example 6.3 ([7]; Concentration 10 µg): 47% | Percentage Inhibition of 3T3 Swiss Fibroblast Growth, Example 6.3 ([7]; Concentration 20 µg): 61% | effect on degranulation in human polymorphonuclear neutrophils [8]: had no effect | level of inhibition of platelet aggregation [9]: comparable to aspirin
